“Also recorded” adds a separate entry of the source.
Legend:
[1] = system: U2OS cells; experiment: DR-GFP reporter assay (HR repair of endonuclease generated DSB); format: cell-based, human; settings: 100 nM or 1 μM
[2] = system: B cells; experiment: Western Blot of apoptotic markers PARP-1 and caspase-9; format: cell-based
Protocol: (§1) Cell death mediated by C-1523 is p53-dependent. It was hypothesized that AID-dependent cytotoxicity induced by C-1523 would be associated with p53-mediated apoptosis. To test the importance of p53, a central regulator of cellular responses to DNA damage, viability was measured in mouse primary B-cells from Trp53+/+ versus Trp53−/− mice following exposure to C-1523. […] Caspase 3 activation, a marker of apoptotic cell death, was measured in C-1523 treated B-cells. B-cells were stained with an antibody that recognizes cleaved, activated caspase-3 (AC3) and the number of AC3-positive cells was measured via immunofluorescence microscopy. Following 10 Gy of ionizing irradiation Trp53+/+(WT), but not Trp53−/− cultures show a >30-fold increase in the percentage of AC3+ cells, confirming Trp53 dependent apoptosis in these cells after DNA damage. […] In order to more completely rule out apoptosis as the mode of cell death following C-1523 treatment in B cells, the expression of other common markers of apoptotic induction was examined via Western Blot.

[3] = system: primary B-cells from Trp53−/− mice; experiment: Viability of activated primary B-cells; format: cell-based, mouse; settings: 100 nM, 4-day activation
Protocol: as §1
(§2) Cell lines and cell culture. […] Immunofluorescence.

[4] = system: AID-expressing mouse B-lymphocytes
[5] = system: primary, AID expressing B-cells; experiment: Live cell imaging of nuclei fragmentation; format: cell-based, mice; settings: 100 nM, individual cell imaged at 20 minute intervals
Protocol: FIG. 22 depicts live cell imaging of primary, AID expressing B-cells treated with 100 nM C-1523. Histone H2B-EGFP transgenic mice were used as a source of B-cells to facilitate imaging of chromatin. The top panel depicts an individual cell imaged at 20 minute intervals for 460 minutes. Images show chromosomal fragmentation commencing at 120 minutes. Data in the bottom panels depict quantification of live cell imaging depicting the fraction of cells that commence fragmentation at each time point (bottom left panel) and the cumulative fraction of fragmented nuclei (bottom right panel).
AID+/+ or AID−/− B-cells were cultured with 100 nM and cell cycle profiles were determined by propidium iodide staining and flow cyotmetry at intervals up to 96 hours. Non-activated (CD40) cells were used as a negative control; activated cells treated with the microtuble poison colcemid (ACT+colcemid) were used as a positive control. Nuclei fragmentation analysis of primary, AID expressing B-cells treated with 100 nM C-1523 was conducted (FIG. 22).

[6] = system: MEC-1 cells; experiment: Viability of human B cell tumor cell line (Trypan Blue); format: cell-based
Protocol: (§3) FIG. 15A depicts an analysis of primary WT (AID+/+, closed markers) and AID−/− (open markers) murine B cell proliferation under activating conditions (αCD40 and IL-4 on days 0 and 2) and treated with the indicated doses of C-1523 for 4 days. Measurement of cell proliferation was determined by Trypan Blue staining and counting of viable, non-staining, cells via hemocytometer. Data are represented as the mean cell count for each condition. FIG. 15B depicts data from experiments in which primary B cells from A were stained with PI on day 4 and analyzed via flow cytometry for the percentage of cells that were non-viable, PI-positive (PI+). FIG. 15C depicts RT-PCR analysis of AID expression in cultured human cell lines. Water (H2O) and RNA from HEK293T cells were employed as negative controls for template and AID expression, respectively, and human activated B lymphocyte RNA (Stim B) was used as a positive control. GAPDH expression was included as a loading control. FIG. 15D depicts viability analysis of CCRF-SB, MEC-1, and MEC-2 cells after 6 days in culture with the indicated concentrations of C-1523, 150 μM DIDS, or DMSO vehicle. Viability was determined by Trypan Blue staining and counting via hemocytometer. FIG. 15E depicts representative immunofluorescence images of phosphorylated γH2AX (green) and nuclei (DAPI, blue) in primary murine splenic B cells from AID−/− (left) or AID+/+ (WT, right) mice. Cells were activated with αCD40 and IL-4 and treated with 100 nM C-1523 for 3 d. Scale bars, 10 μM. FIG. 15F depicts quantitation of foci observed in AID−/− and WT cells represented in FIG. 15E. Data were grouped into categories of cells with low (1-2 foci per nucleus), moderate (3-10 foci per nucleus), or high (>10 foci per nucleus) amounts of DNA damage. Error bars represent the SEM for three independent experiments.
(§4) FIG. 23 depicts graphs of viability analysis for human cancer cell lines treated with C-1523. The acute lymphoblastic leukemia (ALL) line CCRF-SB and the chronic lymphocytic leukemia lines MEC1 and MEC2 were treated with vehicle (DMSO) or 100 nM C-1523, and viability was measured by Tyrpan blue exclusion. All three lines express AID and are sensitive to C-1523 treatment.
(§5) The effect of C-1523 on the viability of AID-expressing human B cell tumor cell lines was further tested ([…]). CCRF-SB is an acute lymphoblastic leukemia cell line derived from a buffy coat preparation (Foley et al., 1968). MEC-1 and MEC-2 are cell lines derived from a patient with chronic lymphocytic leukemia at two different timepoints (before and after fludarabine and rituximab therapy) (Stacchini et al., 1999). C-1523 was tested in these cell lines over a dose range from 1 to 1000 nM, in log increments, and compared to 150 μM DIDS. […] Biphasic or hormetic responses for small molecules can reflect a number of biochemical/biological mechanisms (Calabrese, 2013).
as §2

[7] = system: CCRF-SB cells; experiment: as above; format: cell-based
Protocol: as §3, §4, §5, §2

[8] = system: MEC-2 cells; experiment: as above; format: cell-based
Protocol: as §3, §4, §5, §2

[9] = system: primary splenic B-cells from WT (AID-expressing) mice; experiment: Expansion and viability of activated primary splenic B-cells
[10] = system: mES cells; experiment: DR-GFP reporter assay (HR repair of endonuclease generated DSB); format: cell-based, mouse; settings: 100 nM, compared to DMSO

SMILES: CC(=O)Nc1ccc(/C=C/c2ccc(NC(=S)NC(C)C)cc2S(=O)(=O)O)c(S(=O)(=O)O)c1 [C-1523, (E)-5-acetamido-2-(4-(3-isopropylthioureido)-2-sulfonatostyryl)benzenesulfonate]
- change in GFP-positive cells [1]: no significant change
- cleavage of PARP-1 or caspase-9 ([2]; 2 days following activation): no cleavage of PARP-1 or caspase-9 was observed
- cleaved PARP-1 and caspase-9 ([2]; 3 days): not due to C-1523 treatment specifically
- viability [3]: did not show reduced viability
- acute side effects relative to DIDS (in vivo): no increased acute side effects
- acute toxicity (in vivo): almost no acute toxicity
- tolerance to prolonged drug exposure (single and multiple dose): excellent tolerance
- concentration eliciting AID-specific cytotoxicity [4]: 100 nM
- rank among DIDS analogs tested [4]: most potent DIDS analog tested
- AID+:AID− activity score: effect in AID+ cells versus corresponding AID- cells ([4]; 10 μM): roughly 6 fold
- effectiveness relative to DIDS ([4]; Example 3 summary): 1000 times
- potency relative to DIDS ([4]; dose response data): at least 1500 times
- time at which chromosomal fragmentation commences [5]: 120 min
- sensitivity (viability) ([6]; 100 nM): sensitive
- viability reduction at highest dose ([6]; 1000 nM): less than that observed after treatment with 100 nM
- concentration of greatest viability reduction ([6]; 1 to 1000 nM): 100 nM
- viability response over dose range ([6]; 1 to 1000 nM, 6 days): dose-dependent viability response
- sensitivity (viability) ([7]; 100 nM): sensitive
- viability reduction at highest dose ([7]; 1000 nM): less than that observed after treatment with 100 nM
- concentration of greatest viability reduction ([7]; 1 to 1000 nM): 100 nM
- viability response over dose range ([7]; 1 to 1000 nM, 6 days): dose-dependent viability response
- sensitivity (viability) ([8]; 100 nM): sensitive
- viability response over dose range ([8]; 1 to 1000 nM, 6 days): sensitive at all doses tested
- dependence of induced cell death [9]: both AID and Trp53 dependent
- shape of dose response ([9]; 1 to 1000 nM): biphasic response
- B-cell viability ([9]; 50, 100, 150, 200, or 250 nM, 3 days, Trypan blue): dose-dependent reduction in B-cell viability; also recorded: dose dependent reduction in B-cell viability
- cellular expansion ([9]; 50-250 nM, four days, αCD40+IL-4 activation): selectively suppressed cellular expansion
- PI+ cells (cell death) ([9]; day 4, flow cytometry): significant increase in PI+ cells
- reduction of percentage of GFP-positive cells [10]: about 40%

From patent US10927075B2, “Compositions and methods relating to the treatment of cancer, autoimmune disease, and neurodegenerative disease” (THE JACKSON LABORATORY, priority 2014, dated 2021)
